Source: article PMC6152678, “In Vitro Comparative Study of the Inhibitory Effects of Mangiferin and Its Aglycone Norathyriol towards UDP-Glucuronosyl Transferase (UGT) Isoforms” (Molecules : A Journal of Synthetic Chemistry and Natural …, 2017)
“And” between values parts separate entries of the source, which are not always exact repeats. Equal entries are not always repeated. Where two headings read alike, the source gives them in different places.

Tests used:
UGT1A9 = molecular target: T1, UGT1A9 (Homo sapiens, UniProt O60656); assay: Inhibition of recombinant UGT-catalyzed 4-MU glucuronidation; assay type: biochemical; conditions: for inhibition at 30 min, 100 µM: human, pH 7.4, probe 4-methylumbelliferone (4-MU), 30 μM, 100 μM compound, 4-MU probe substrate, negative = activation
T1 construct: purchased BD Gentest Corp. (Woburn, MA, USA); host or cells: baculovirus-infected insect cells
T1 sequence (O60656 26-530): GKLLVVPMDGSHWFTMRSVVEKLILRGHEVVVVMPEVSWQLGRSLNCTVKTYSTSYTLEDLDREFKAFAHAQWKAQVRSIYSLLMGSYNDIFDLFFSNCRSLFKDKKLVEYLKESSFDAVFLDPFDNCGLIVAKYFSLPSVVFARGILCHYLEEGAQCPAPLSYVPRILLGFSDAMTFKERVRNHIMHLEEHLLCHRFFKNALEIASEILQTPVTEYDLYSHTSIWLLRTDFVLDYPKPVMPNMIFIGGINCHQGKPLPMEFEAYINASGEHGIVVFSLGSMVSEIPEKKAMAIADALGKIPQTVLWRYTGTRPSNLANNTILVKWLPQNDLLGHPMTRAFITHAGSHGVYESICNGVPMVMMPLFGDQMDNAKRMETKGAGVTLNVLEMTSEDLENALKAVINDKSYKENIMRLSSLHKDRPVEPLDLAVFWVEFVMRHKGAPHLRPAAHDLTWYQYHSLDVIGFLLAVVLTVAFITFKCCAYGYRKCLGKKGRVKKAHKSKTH

[1] = set-up: method as in PMID 27130074; conditions: after administration of 200 mg/kg MGF; cited from earlier work
[2] = rat, cited from earlier work
[3] = set-up: method as in PMID 26434292; conditions: human, oral 0.9 g mangiferin, cited from earlier work

| SMILES | inhibition at 30 min, 100 µM (UGT1A9) | Cmax [1] | maximum concentration in the plasma ([2]; oral MGF 70mg/kg) | maximum concentration in the plasma ([2]; oral MGF 120 mg/kg) | concentration in plasma reached ([3]; about 1 h) | time at which the plasma concentration was reached [3] | IC50 (UGT1A9; 4-MU glucuronidation, Probit analysis, read-out: IC50 towards UGT1A9) | inhibition type towards UGT1A9 (UGT1A9; Dixon plot and Lineweaver-Burk plot) | Ki (UGT1A9; second plot of Lineweaver-Burk slopes, read-out: inhibition constant (Ki) towards UGT1A9) | AUCNTR/AUCMGF [1] |
| --- | --- | --- | --- | --- | --- | --- | --- | --- | --- | --- |
| O=c1c2cc(O)c(O)cc2oc2cc(O)c([C@@H]3O[C@H](CO)[C@@H](O)[C@H](O)[C@H]3O)c(O)c12 [MGF, 1,3,6,7-tetrahydroxyxanthone-C-2-β-D-glucoside] | 8.2% | 202.58 ng/mL | 0.19 μg/mL and 0.45 μM | 8.13 ± 1.96 μg/mL and 19.2 ± 4.64 μM | 38.64 ± 6.75 ng/mL and 0.091 ± 0.016 μM | about 1 h |  |  |  |  |
| O=c1c2cc(O)c(O)cc2oc2cc(O)cc(O)c12 [NTR, 1,3,6,7-tetrahydroxyxanthone] | 94.2% | < 3 ng/mL |  |  |  |  | 12.3 µM | competitively inhibited | 2.8 µM | < 3% |
